What was measured:
NAC peptide = molecular target: T1, NAC peptide (Homo sapiens, UniProt P37840); test: Binding to NAC peptide by electrospray mass spectrometry; settings: area of bound NAC-compound complex peaks / unbound NAC; compound:NAC 5:1, 6.6% EtOH, pH 7.4
T1 construct: NAC is a 35 amino acid long peptide with highly hydrophobic stretches
Protocol: The ability of the compounds of the present invention to bind to NAC peptide in aqueous solution was evaluated. The binding ability correlates to the intensities of the peptide-compound complex peaks observed by the Electrospray Mass Spectrum. Millipore distilled deionized water was used to prepare all aqueous solutions. For pH determination a Beckman Φ36 pH meter fitted with a Corning Semi-Micro Combination pH Electrode was employed.
The optimal cone voltage was determined to be 20V.
Mass spectrometry—Mass spectrometric analysis was performed using a Waters ZQ 4000 mass spectrometer equipped with a Waters 2795 sample manager. MassLynx 4.0 (earlier by MassLynx 3.5) was used for data processing and analysis. Test compounds were mixed with disaggregated peptides in aqueous media (6.6% EtOH) at a 5:1 ratio (20 μM NAC: 100 μM of test compound or 40 μM NAC:200 μM of test compound). The pH of the mixture was adjusted to 7.4 (±0.2) using 0.1% NaOH (3-5 μL). Periodically, NAC peptide solution at 20 μM or 40 μM was also prepared in the same fashion and run as control. The spectra were obtained by introducing the solutions to the electrospray source by direct infusion using a syringe pump at a flow rate of 25 μl/min, and scanning from 100 to 2100 Da in the positive mode. The scan time was 0.9 sec per scan with an inter-scan delay of 0.1 sec and the run time was 5 min for each sample. All the mass spectra were sum of 300 scans. The desolvation and source temperature was 70° C. and the cone and capillary voltage were maintained at 20 V and 3.2 kV respectively.
The total area under the peaks for the bound NAC-compound complex divided by total area under the peaks for unbound NAC was determined for each compound tested.

Aβ peptides = test: Short term treatment of TgCRND8 mice: Aβ peptide levels; type: in vivo, Mouse; settings: after 14 and 28 days of treatment
Protocol: The short term therapeutic effect of 19 compounds of the invention was studied. These compounds were administered over a 14 or 28 day period at the end of which the levels of Aβ peptides in the plasma and brain of TgCRND8 animals were determined.
Starting at 11 weeks of age (±1 week) animals received daily administration of their respective treatment for a period of 14 or 28 days (groups 2-21), at a dose of 250 mg/kg at 10 ml/kg or of vehicle only (water; group 2) or 1% methyl cellulose only (group 21). The route of administration was subcutaneous for water-soluble compounds and oral for compounds solubilized in methylcellulose 1% (MC 1%). At the end of the treatment periods, plasma and perfused brains were collected for quantification of Aβ levels.
Aβ levels were evaluated in plasma and brain samples by ELISA using Human Aβ40 and Aβ42 Fluorometric ELISA kits from Biosource (Cat. No. 89-344 and 89-348) according to manufacturer's recommended procedures. […] The plate was incubated for 35 minutes at room temperature and the plate was read using a titer plate reader at an excitation wavelength of 460 nm and emission at 560 nm.
Compounds were scored based on their ability to modulate levels of Aβ peptides in the plasma and the cerebral soluble/insoluble levels in the brain. […] The strongest effects are recorded as “+++” or “−−−” while the weakest are shown as “+” or “−”.

Aβ40 = molecular target: T2, Aβ40 (Homo sapiens, UniProt P05067); test: Short term treatment of TgCRND8 mice: Aβ40 levels in plasma and brain (ELISA); type: in vivo, Mouse; settings: for Aβ40 Change Insoluble / Aβ40 Change Soluble: brain homogenate, vehicle group; for Aβ40 Change: plasma, vehicle (water) group, TgCRND8 mice
T2 construct: from tissue; host or cells: plasma and brain homogenate of TgCRND8 transgenic mice (hAPP transgene)
T2 sequence (P05067 672-711 limits assumed): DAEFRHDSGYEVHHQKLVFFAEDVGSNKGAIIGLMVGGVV
From the text: (§1) Transgenic mice, […]8, expressing the human amyloid precursor protein (hAPP) develop a pathology resembling Alzheimer's disease. In particular, high levels of Aβ40 and Aβ42 have been documented in the plasma and the brain of these animals at 8-9 weeks of age, followed by early accumulation of amyloid plaques similar to the senile plaques observed in […]. These animals also display progressive cognitive deficits that parallel the appearance of degenerative changes. See, […], et al., J. Biol. Chem. 276, 21562-70 (2001). The short term therapeutic effect of 19 compounds of the invention was studied. […] The following abbreviations are used to designate these animals from the 3rd and 4th generation backcross in the present protocol: TgCRND8-2.B6C3F1 (N3); TgCRND8-2.B6C3F1 (N4). Baseline animals (Group 1) consisted of naive TgCRND8-2.B6C3F1(N3) at 11±1 weeks of age. These mice were used to determine the Aβ levels in the plasma and brain of naive transgenic animals at the initiation of treatment. […] At the end of the treatment periods, plasma and perfused brains were collected for quantification of Aβ levels. […] Plasma samples were immediately frozen and stored at -80° C. pending analysis. The brains were removed, frozen, and stored at -80° C. awaiting analysis. […] Samples were spun at 15000 g for 20 minutes and the supernatants were transferred to fresh tubes. […] The tubes were vortexed for 30 seconds and frozen at -80° C. […] Samples were thawed at room temperature, sonicated at 80° C. for 15 minutes and frozen again. This cycle was repeated 3 times to ensure homogeneity and samples were returned to -80° C. pending analysis. Aβ levels were evaluated in plasma and brain samples by ELISA using Human Aβ40 and Aβ42 Fluorometric ELISA kits from Biosource (Cat. […] In short, samples were thawed at room temperature, sonicated for 5 minutes at 80° C. (sonication for brain homogenates; no sonication for plasma samples) and kept on ice. Aβ peptides were captured using 100 μl of the diluted samples to the plate and incubated without shaking at 4° C. overnight. The samples were aspirated and the wells were rinsed 4 times with wash buffer obtained from the Biosource ELISA kit. The anti-Aβ40 or anti-Aβ42 rabbit polyclonal antiserum (specific for the Aβ40 or Aβ42 peptide) was added (100 μl) and the plate was incubated at room temperature for 2 hours with shaking. The wells were aspirated and washed 4 times before adding 100 μl of the alkaline phosphatase labeled anti-rabbit antibody and incubating at room temperature for 2 hours with shaking. The plates were then rinsed 5 times and the fluorescent substrate (100 μl) was added to the plate. The plate was incubated for 35 minutes at room temperature and the plate was read using a titer plate reader at an excitation wavelength of 460 nm and emission at 560 nm. Compounds were scored based on their ability to modulate levels of Aβ peptides in the plasma and the cerebral soluble/insoluble levels in the brain. Levels of Aβ observed in the plasma and brain of treated animals were normalized using values from vehicle-treated (water) or methylcellulose-treated control groups and ranked according to the strength of the pharmacological effect. Increases in the levels of Aβ peptides are indicated using “+” symbols, while decreases in the levels of Aβ peptides are indicated using “-” symbols. The strongest effects are recorded as “+++” or “---” while the weakest are shown as “+” or “-”.

Aβ42 = molecular target: T3, Aβ42 (Homo sapiens, UniProt P05067); test: Short term treatment of TgCRND8 mice: Aβ42 levels in plasma and brain (ELISA); type: in vivo, Mouse; settings: for Aβ42 Change: plasma, vehicle (water) group, TgCRND8 mice
T3 construct: from tissue; host or cells: plasma and brain homogenate of TgCRND8 transgenic mice (hAPP transgene)
T3 sequence (P05067 672-713 limits assumed): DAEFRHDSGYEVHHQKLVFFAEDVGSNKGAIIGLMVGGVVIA
From the text: as §1

[1] = Day 14, 250 mg/kg daily subcutaneous
[2] = Day 28, 250 mg/kg daily subcutaneous
[3] = brain homogenate, vehicle group, Day 28, 250 mg/kg daily subcutaneous

## CH3(CH2)9N^+(CH3)2(CH2)3SO3^− [DB]
NAC peptide
  Binding Strength: +++ (Strong; when the total binding is 120% and higher)

## CC(C)(C)NCCCS(=O)(=O)O [Compound BX, 3-(t-butyl)amino-1-propanesulfonic acid]
Aβ peptides
  levels of Aβ peptides in the plasma: significant increase

## NCCCCS(=O)(=O)[O-].[Na+]
NAC peptide
  Binding Strength: − (None; when the total binding is between 30% and 0%)

## O=C1NCCCC[C@@H]1NCCCS(=O)(=O)[O-].[Na+]
NAC peptide
  Binding Strength: + (Weak; when the total binding is between 70% and 30%)

## CCCCCCCCCCCC[N+](C)(C)CCCS(=O)(=O)[O-] [DF, CH3(CH2)11N^+(CH3)2(CH2)3SO3^−]
NAC peptide
  Binding Strength: ++ (Moderate; when the total binding is between 120% and 70%)

## CCCCCCCCCCCCCC[N+](C)(C)CCCS(=O)(=O)[O-] [NA, CH3(CH2)13N^+(CH3)2(CH2)3SO3^−]
NAC peptide
  Binding Strength: ++ (Moderate; when the total binding is between 120% and 70%)

## CCCC(CO)NCCCS(=O)(=O)O (racemic) [Compound CA, 3-[(dl)-1-hydroxy-2-pentyl]amino-1-propane-sulfonic acid]
Aβ40; [1]
  Aβ40 Change Insoluble: − (Decreases in the levels of Aβ of 5 to 19% are scored as “−”)
  Aβ40 Change Soluble: + (increases in the levels of Aβ (relative to untreated control) of 20 to 39% are scored as “+”)
  Aβ40 Change: +++ (increases of 70% or higher are scored as “+++”)
Aβ40; [2]
  Aβ40 Change Insoluble: ++ (increases of 40 to 69% are scored as “++”)
  Aβ40 Change Soluble: + (increases in the levels of Aβ (relative to untreated control) of 20 to 39% are scored as “+”)
  Aβ40 Change: +++ (increases of 70% or higher are scored as “+++”)
Aβ42; brain homogenate, vehicle group, Day 14, 250 mg/kg daily subcutaneous
  Aβ42 Change Insoluble: −− (decreases of 20 to 38% are scored as “−−”)
Aβ42; [3]
  Aβ42 Change Insoluble: + (increases in the levels of Aβ (relative to untreated control) of 20 to 39% are scored as “+”)
  Aβ42 Change Soluble: + (increases in the levels of Aβ (relative to untreated control) of 20 to 39% are scored as “+”)
Aβ42; [1]
  Aβ42 Change: +++ (increases of 70% or higher are scored as “+++”)
Aβ42; [2]
  Aβ42 Change: +++ (increases of 70% or higher are scored as “+++”)

— patent US7598269B2, “Methods and compositions for treating amyloid-related diseases” (Bellus Health (International) Limited, priority 2003, dated 2009)
